According to patent US3989598A (priority 1962, dated 1976):
≈ marks a conversion by molar mass, not a printed value. Structures can show the parent of a compound that is named as a salt.

Columns and labels:
solubility = type: physicochemical
[1] = tested on: Staphylococcus aureus strain B3; experiment: bacteriostatic activity, dilution method in nutritive broth; type: cell-based; settings: B3, read-out: Minimal bacteriostatic concentration
[2] = tested on: Staphylococcus aureus strain Hb; experiment: as above; type: cell-based; settings: read-out: Minimal bacteriostatic concentration
[3] = tested on: Staphylococcus aureus strain Launoy 1; experiment: as above; type: cell-based; settings: LAUNOY1, strain Launoy 1 (tetracycline, streptomycin, chloramphenicol and penicillin resistant), read-out: Minimal bacteriostatic concentration
[4] = tested on: Staphylococcus aureus strain Launoy 2; experiment: as above; type: cell-based; settings: LAUNOY2, strain Launoy 2 (tetracycline, streptomycin and penicillin resistant), read-out: Minimal bacteriostatic concentration
[5] = tested on: Staphylococcus aureus strain 1142 R; experiment: as above; type: cell-based; settings: read-out: Minimal bacteriostatic concentration
[6] = tested on: Staphylococcus aureus strain 3486 R; experiment: as above; type: cell-based; settings: read-out: Minimal bacteriostatic concentration
[7] = tested on: Staphylococcus aureus carbomycin resistant strain; experiment: as above; type: cell-based; settings: read-out: Minimal bacteriostatic concentration
[8] = tested on: Staphylococcus aureus erythromycin resistant strain; experiment: as above; type: cell-based; settings: read-out: Minimal bacteriostatic concentration
[9] = tested on: Staphylococcus aureus novobiocin resistant strain; experiment: as above; type: cell-based; settings: read-out: Minimal bacteriostatic concentration
[10] = tested on: Staphylococcus aureus streptogramin resistant strain; experiment: as above; type: cell-based; settings: read-out: Minimal bacteriostatic concentration
[11] = tested on: Staphylococcus aureus actinomycin resistant strain; experiment: as above; type: cell-based; settings: read-out: Minimal bacteriostatic concentration
[12] = tested on: Staphylococcus aureus strain 662 R; experiment: as above; type: cell-based; settings: read-out: Minimal bacteriostatic concentration
[13] = tested on: Micrococcus lysodeikticus; experiment: as above; type: cell-based; settings: Micrococcus luteus, read-out: Minimal bacteriostatic concentration
[14] = tested on: Gaffkya tetragena (Fac.Phie); experiment: as above; type: cell-based; settings: read-out: Minimal bacteriostatic concentration
[15] = tested on: Sarcina lutea - ATCC 9341; experiment: as above; type: cell-based; settings: Micrococcus luteus, ATCC9341, read-out: Minimal bacteriostatic concentration
Sarcina alba (Fac.Phie) = experiment: as above; type: cell-based; settings: read-out: Minimal bacteriostatic concentration
[16] = tested on: Streptococcus faecalis (Thiercelin's enterococcus Fac.Phie); experiment: as above; type: cell-based; settings: read-out: Minimal bacteriostatic concentration
[17] = tested on: Streptococcus faecalis ATCC 9790; experiment: as above; type: cell-based; settings: Enterococcus faecalis, ATCC9790, read-out: Minimal bacteriostatic concentration
[18] = tested on: Streptococcus viridans (Institut Pasteur); experiment: as above; type: cell-based; settings: read-out: Minimal bacteriostatic concentration
[19] = tested on: Streptococcus pyogenes Hemolyticus (strain Dig 7, Instut Pasteur); experiment: as above; type: cell-based; settings: read-out: Minimal bacteriostatic concentration
[20] = tested on: Diplococcus pneumoniae (strain Til. Institut Pasteur); experiment: as above; type: cell-based; settings: Streptococcus pneumoniae, read-out: Minimal bacteriostatic concentration
[21] = tested on: Neisseria catarrhalis (Fac.Phie); experiment: as above; type: cell-based; settings: read-out: Minimal bacteriostatic concentration
[22] = tested on: Corynebacterium pseudodiphtericum (Fac.Phie); experiment: as above; type: cell-based; settings: read-out: Minimal bacteriostatic concentration
[23] = tested on: Lactobacillus casei - ATCC 7469; experiment: as above; type: cell-based; settings: Lacticaseibacillus casei, ATCC7469, read-out: Minimal bacteriostatic concentration
[24] = tested on: Bacillus subtilis ATCC 6633; experiment: as above; type: cell-based; settings: ATCC6633, read-out: Minimal bacteriostatic concentration
[25] = tested on: Bacillus subtilis (strain ZO 5 A, Fac. Phie); experiment: as above; type: cell-based; settings: read-out: Minimal bacteriostatic concentration
[26] = tested on: Bacillus subtilis (strain 3 R 9575, Merck - ATCC 9524); experiment: as above; type: cell-based; settings: ATCC9524, read-out: Minimal bacteriostatic concentration
[27] = tested on: Bacillus cereus ATCC 6630; experiment: as above; type: cell-based; settings: ATCC6630, read-out: Minimal bacteriostatic concentration
[28] = tested on: Bacillus brevis ATCC 8185; experiment: as above; type: cell-based; settings: Brevibacillus brevis, ATCC8185, read-out: Minimal bacteriostatic concentration
Bacillus mycoides = experiment: as above; type: cell-based; settings: read-out: Minimal bacteriostatic concentration
[29] = tested on: Bacillus megatherium (NRRL B 1125); experiment: as above; type: cell-based; settings: read-out: Minimal bacteriostatic concentration
[30] = tested on: Mycobacterium smegmatis - ATCC 607; experiment: as above; type: cell-based; settings: Mycolicibacterium smegmatis, ATCC607, read-out: Minimal bacteriostatic concentration
[31] = tested on: Mycobacterium phlei (Bacteriological Institute of Lyon); experiment: as above; type: cell-based; settings: Mycolicibacterium phlei, read-out: Minimal bacteriostatic concentration
[32] = tested on: Mycobacterium para-smegmatis (A 75 - Lausanne); experiment: as above; type: cell-based; settings: read-out: Minimal bacteriostatic concentration
[33] = tested on: Escherichia coli - ATCC 9637; experiment: as above; type: cell-based; settings: ATCC9637, read-out: Minimal bacteriostatic concentration
Text: For each organism, the lowest concentration of substance has been determined which, under the defined condition, prevents all visible development in an appropriate nutritive broth. The results of various determinations are shown in Table VI, wherein the minimal bacteriostatic concentrations are expressed as micrograms of substance per cubic centimeter of experimental medium.

[34] = tested on: Shigella dysenteriae (Shiga L. - Institut Pasteur); experiment: microbe, parasite or virus in culture; type: cell-based; settings: read-out: Minimal bacteriostatic concentration
[35] = tested on: Salmonella typhimurium (Institut Pasteur); experiment: bacteriostatic activity, dilution method in nutritive broth; type: cell-based; settings: Salmonella enterica, read-out: Minimal bacteriostatic concentration
[36] = tested on: Salmonella paratyphi A (Lacasse, Institut Pasteur); experiment: as above; type: cell-based; settings: Salmonella enterica, read-out: Minimal bacteriostatic concentration
[37] = tested on: Salmonella schottmuelleri (paratyphi B) (Fougenc, Institut Pasteur); experiment: as above; type: cell-based; settings: read-out: Minimal bacteriostatic concentration
[38] = tested on: Bacillus lactis aerogenes (Fac. Phie); experiment: as above; type: cell-based; settings: read-out: Minimal bacteriostatic concentration
[39] = tested on: Aerobacter aerogenes - ATCC 8308; experiment: as above; type: cell-based; settings: Klebsiella aerogenes, ATCC8308, read-out: Minimal bacteriostatic concentration
[40] = tested on: Alcaligenes faecalis - ATCC 8749; experiment: as above; type: cell-based; settings: ATCC8749, read-out: Minimal bacteriostatic concentration
[41] = tested on: Proteus vulgaris (Fac. Phie); experiment: as above; type: cell-based; settings: read-out: Minimal bacteriostatic concentration
Proteus X 19 = experiment: as above; type: cell-based; settings: read-out: Minimal bacteriostatic concentration
[42] = tested on: Klebsiella pneumoniae - ATCC 10,031; experiment: as above; type: cell-based; settings: ATCC10, read-out: Minimal bacteriostatic concentration
[43] = tested on: Serratia marcescens (A. 476,Lausanne); experiment: as above; type: cell-based; settings: read-out: Minimal bacteriostatic concentration
[44] = tested on: Pseudomonas aeruginosa (Bass strain - Institut Pasteur); experiment: as above; type: cell-based; settings: read-out: Minimal bacteriostatic concentration
[45] = tested on: Brucella bronchiseptica (CN 387 - Wellcome Institute); experiment: microbe, parasite or virus in culture; type: cell-based; settings: Bordetella bronchiseptica, read-out: Minimal bacteriostatic concentration
[46] = tested on: Pasteurella multocida (A. 125 - Institut Pasteur); experiment: bacteriostatic activity, dilution method in nutritive broth; type: cell-based; settings: read-out: Minimal bacteriostatic concentration
Klebsiella pneumoniae = experiment: turbidimetric estimation of activity by comparison with a 9865 RP sample of known activity; type: cell-based; settings: unit = smallest quantity in 1 cc. of medium that inhibits growth of Klebsiella pneumoniae
Text: The following non-limitative Examples illustrate the invention. […] This activity is expressed in units (u) per mg. for solid products and in units per cc. for solution. (The unit is defined as the smallest quantity of product which, dissolved in 1 cc. of an appropriate medium, inhibits the growth of Klebsiella pneumoniae under the conditions in question).

lymphosarcoma = experiment: utility in treating certain tumours; type: in vivo, human
nephroblastoma = experiment: utility in treating certain tumours; type: in vivo, human
neuroblastoma = experiment: utility in treating certain tumours; type: in vivo, human
[47] = tested on: acute lymphoblastic leukemia; experiment: utility in treating certain tumours; type: in vivo, human
[48] = tested on: acute myeloblastic leukemia; experiment: utility in treating certain tumours; type: in vivo, human
[49] = tested on: Bacillus subtilis or Klebsiella pneumoniae; experiment: paper chromatography with bioautography on seeded agar plates; type: cell-based; settings: paper chromatogram
Text: The antibiotic is chromatographed on Arches No.302 paper impregnated with a pH 4.8 phosphate buffer, with n-butanol saturated with water, using descending development. The chromatogram is developed by bioautography on nutritive agar plates seeded with Bacillus subtilis or Klebsiella pneumoniae.

blood-forming centers = experiment: clinical safety of daunorubicin: blood formation; type: in vivo; settings: human treatment
[50] = clinical safety of daunorubicin: heart; type: in vivo; settings: human treatment
[51] = clinical dosage in acute leukaemias: maximum safe dose; settings: human, in vivo, iv, overall dosage of initial treatment, calculated per kg weight
Procedure: Treatment of acute leukaemias must be intensive and of short duration; depending on the case, it comprises one or more courses. In the lymphoblstic forms of leukaemia, the actual trend is to administer a daily dose of 1 mg/kg body weight of two to eight consecutive days, and to cease injections when the leucopenia reaches 1,000 to 1,500 units per cc. It will be recalled that characteristic changes in the medullary cytology fcilitate the conducting of the treatment and help in its adaptation to each particular case. […] It is, moreover, at the end of the aplastic phase, when the number of leucocytes is rising again, that adjustement of the theraputic dose is difficult. When, the day after medication was stopped the leucopenia worsens and the medullary blasts change, it is required to wait for regeneration of the blood before proceeding with a bone marrow test. If the lqucopenia is not accentuated and the medullary cytology remains high with persistence of blastic cells, a second course is undertaken. […] The overall dosage corresponding to the group of courses making up the initial treatment, such as has just been defined, is far from being uniform; calculated per kg weight, it sometimes reaches 20 mg, a dose of around 25 mg being considered the maximum safe dose. […]

[52] = acute toxicity in the mouse; settings: in vivo, sc
[53] = subacute toxicity in the mouse (one dose per day for 5 days); settings: in vivo

COc1cccc2c1C(=O)c1c(O)c3c(c(O)c1C2=O)C[C@@](O)(C(C)=O)C[C@@H]3O[C@H]1C[C@H](N)[C@H](O)[C@H](C)O1 [13057 RP daunorubicin hydrochloride]
solubility in chloroform (solubility; listed as hydrochloride): slightly soluble
solubility in water (solubility; listed as hydrochloride): soluble

COc1cccc2c1C(=O)c1c(O)c3c(c(O)c1C2=O)C[C@@](O)(C(C)=O)C[C@@H]3O[C@H]1C[C@H](N)[C@H](O)[C@H](C)O1 [13057 RP daunorubicin, daunorubicin]
MIC [1]: 5.2 µg/mL (≈ 9.86 µM)
MIC [2]: 5.3 µg/mL (≈ 10 µM)
MIC [3]: 7.1 µg/mL (≈ 13.5 µM)
MIC [4]: 4.8 µg/mL (≈ 9.1 µM)
MIC [5]: 2.1 µg/mL (≈ 3.98 µM)
MIC [6]: 5.2 µg/mL (≈ 9.86 µM)
MIC [7]: 5.3 µg/mL (≈ 10 µM)
MIC [8]: 3.8 µg/mL (≈ 7.2 µM)
MIC [9]: 3.9 µg/mL (≈ 7.39 µM)
MIC [10]: 1.9 µg/mL (≈ 3.6 µM)
MIC [11]: 5.8 µg/mL (≈ 11 µM)
MIC [12]: 6.3 µg/mL (≈ 11.9 µM)
MIC [13]: 2.5 µg/mL (≈ 4.74 µM)
MIC [14]: 6.7 µg/mL (≈ 12.7 µM)
MIC [15]: 1.2 µg/mL (≈ 2.27 µM)
MIC (Sarcina alba (Fac.Phie)): 3.3 µg/mL (≈ 6.26 µM)
MIC [16]: 19 µg/mL (≈ 36 µM)
MIC [17]: 30 µg/mL (≈ 56.9 µM)
MIC [18]: 43 µg/mL (≈ 81.5 µM)
MIC [19]: 1.6 µg/mL (≈ 3.03 µM)
MIC [20]: 0.89 µg/mL (≈ 1.69 µM)
MIC [21]: 2.2 µg/mL (≈ 4.17 µM)
MIC [22]: 1.7 µg/mL (≈ 3.22 µM)
MIC [23]: 1.2 µg/mL (≈ 2.27 µM)
MIC [24]: 1.2 µg/mL (≈ 2.27 µM)
MIC [25]: 1.5 µg/mL (≈ 2.84 µM)
MIC [26]: 1.8 µg/mL (≈ 3.41 µM)
MIC [27]: 2.2 µg/mL (≈ 4.17 µM)
MIC [28]: 1.4 µg/mL (≈ 2.65 µM)
MIC (Bacillus mycoides): 1.8 µg/mL (≈ 3.41 µM)
MIC [29]: 1.3 µg/mL (≈ 2.46 µM)
MIC [30]: 1.2 µg/mL (≈ 2.27 µM)
MIC [31]: 5 µg/mL (≈ 9.48 µM)
MIC [32]: 2.2 µg/mL (≈ 4.17 µM)
MIC [33]: 500 µg/mL (≈ 948 µM)
MIC [34]: 2000 µg/mL (≈ 3790 µM)
MIC [35]: 1000 µg/mL (≈ 1900 µM)
MIC [36]: 16 µg/mL (≈ 30.3 µM)
MIC [37]: 1000 µg/mL (≈ 1900 µM)
MIC [38]: 120 µg/mL (≈ 227 µM)
MIC [39]: 1000 µg/mL (≈ 1900 µM)
MIC [40]: 1.8 µg/mL (≈ 3.41 µM)
MIC [41]: > 2000 µg/mL
MIC (Proteus X 19): 62 µg/mL (≈ 118 µM)
MIC [42]: 8.9 µg/mL (≈ 16.9 µM)
MIC [43]: 120 µg/mL (≈ 227 µM)
MIC [44]: 1000 µg/mL (≈ 1900 µM)
MIC [45]: 62 µg/mL (≈ 118 µM)
MIC [46]: 1.8 µg/mL (≈ 3.41 µM)
activity (Klebsiella pneumoniae): 160 μ/mg.
utility in treating tumours (lymphosarcoma): proved to be of utility
utility in treating tumours (nephroblastoma): proved to be of utility
utility in treating tumours (neuroblastoma): proved to be of utility
utility in treating tumours [47]: proved to be of utility
utility in treating tumours [48]: proved to be of utility
active substance by bioautography [49]: active
solubility in alcohols (solubility; alcohols): soluble
solubility in benzene (solubility; benzene): practically insoluble
solubility in chloroform (solubility): soluble
solubility in diethyl ether (solubility; diethyl ether): practically insoluble
solubility in ketones (solubility; ketones): very slighly soluble
solubility in water (solubility): very slighly soluble
action on the blood-forming centers (blood-forming centers): depressant action
cardiac complications [50]: sometimes accompanied by cardiac complications
MTD [51]: ~25 mg/kg
LD50 [52]: 47 mg/kg
LD50 ([53]; iv): 8.75 mg/kg
LD50 ([53]; sc): 13.7 mg/kg
